The results in this text go back to ChEMBL document CHEMBL1201862, “PubChem BioAssay data set” (2004).

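Interpolation was linear, between the two tested concentrations surrounding the appropriate level; five concentrations were tested over 48 hours in 96-well plates. Here, GI50 denotes the concentration required for 50% inhibition of growth.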 Activity calls are given as the source filed them. Rule as the data show it: active = GI50 up to about 1.1 µM and inactive = higher.

Some test systems named below: OVCAR-3; SF-268; HCT-15; SNB-19; OVCAR-5; UACC-62; SF-539; MOLT-4; HCT-116; TK-10; SK-MEL-5; NCI-H23; HCC 2998; MDA-MB-435; OVCAR-8; UO-31; K562; SN12C; EKVX; BT-549.
Holding throughout (test): NCI anticancer screen, dose series, 48 h

Turning to `COc1ccc(S(=O)(=O)Nc2ccc(-c3csc(N4C(=O)/C(=C/c5ccccc5[N+](=O)[O-])N=C4c4ccccc4)n3)cc2)cc1Cl`, the GI50 was 26 µM (inactive) in the assay with OVCAR-3; 38.8 µM (inactive) in the assay on SF-268; 29 µM in the assay with HCT-15; 59 µM (inactive) with SNB-19; 73.6 µM (inactive) in the assay on OVCAR-5; 34.3 µM (inactive) in the assay on UACC-62. The GI50 in the assay on SF-539 is 80.2 µM (inactive); in the assay on MOLT-4, 29.9 µM (inactive); in the assay with HCT-116, 38.8 µM (inactive); with TK-10, 53.3 µM (inactive); in the assay on SK-MEL-5, 43.2 µM (inactive); in the assay on NCI-H23, 20.8 µM (inactive). For the same compound, the GI50 is 22.9 µM (inactive) with HCC 2998; > 100 µM (inactive) in the assay with MDA-MB-435; 35.3 µM (inactive) in the assay with OVCAR-8; 32.3 µM (inactive) with UO-31; 39.5 µM (inactive) with K562; > 100 µM (inactive) in the assay on SN12C.

Turning to `NCC#CCNCCCN1CC1`, the GI50 was > 100 µM (inactive) in the assay on OVCAR-3; > 100 µM (inactive) in the assay on EKVX; > 100 µM (inactive) in the assay with SF-268; over 100 µM in the assay on HCT-15; > 100 µM (inactive) in the assay on SNB-19; > 100 µM (inactive) in the assay with OVCAR-5. Moreover, the GI50 with UACC-62, with SF-539, with HCT-116, in the assay on TK-10, with SK-MEL-5 and in the assay with NCI-H23 was > 100 µM (inactive) throughout. In addition, the GI50 with HCC 2998, in the assay on MDA-MB-435, in the assay with OVCAR-8, with K562 and in the assay with SN12C was > 100 µM (inactive) each time.

On to `Cc1ccc2ccccc2c1NC1=NCCO1`, for which the GI50 is > 100 µM (inactive) with EKVX; > 100 µM (inactive) in the assay on SF-268; over 100 µM in the assay with HCT-15; 27.2 µM (inactive) in the assay with SNB-19; > 100 µM (inactive) in the assay on OVCAR-5; > 100 µM (inactive) in the assay with UACC-62. Moreover, the GI50 in the assay with SF-539 is 35.6 µM (inactive); in the assay with MOLT-4, 34 µM (inactive); in the assay on HCT-116, 45.5 µM (inactive); in the assay with TK-10, > 100 µM (inactive); in the assay on SK-MEL-5, 81.5 µM (inactive); in the assay on NCI-H23 it was 90.4 µM (inactive). Also, the GI50 was 82.8 µM (inactive) in the assay on HCC 2998; > 100 µM (inactive) in the assay with MDA-MB-435; > 100 µM (inactive) in the assay on OVCAR-8; 27.7 µM (inactive) with UO-31; 56.9 µM (inactive) with K562; > 100 µM (inactive) in the assay with SN12C.

Regarding `CNC(=O)CNC(=O)CCC(=O)OC`, the GI50 in the assay with OVCAR-3, in the assay with SF-268, in the assay with SNB-19, in the assay with OVCAR-5, in the assay on UACC-62 and in the assay on SF-539 was > 100 µM (inactive) in each case. Also, the GI50 in the assay on MOLT-4, in the assay with HCT-116, with TK-10, in the assay with SK-MEL-5, in the assay with NCI-H23 and with MDA-MB-435 was > 100 µM (inactive) each time. The GI50 in the assay with OVCAR-8, in the assay with UO-31, in the assay on K562 and in the assay with SN12C was > 100 µM (inactive) throughout.

As to `Oc1c(Cl)c(Cl)c(O)c(CCNc2nccs2)c1Cl`, the GI50 was 9.35 µM (inactive) in the assay on OVCAR-3; 14.3 µM (inactive) in the assay with EKVX; 9.06 µM (inactive) in the assay on SF-268; 13.7 µM in the assay on HCT-15; 17 µM (inactive) in the assay with SNB-19; 23.2 µM (inactive) in the assay with OVCAR-5. In addition, the GI50 with UACC-62 is 17.1 µM (inactive); in the assay with SF-539 it was 1.68 µM (inactive); in the assay on MOLT-4, 48.8 µM (inactive); in the assay on HCT-116, 7.66 µM (inactive); in the assay on TK-10 it was 11.7 µM (inactive); in the assay with SK-MEL-5, 2.2 µM (inactive). For the same compound, the GI50 in the assay with NCI-H23 was 18.4 µM (inactive); in the assay on HCC 2998, 16.1 µM (inactive); in the assay with MDA-MB-435 it was 16.1 µM (inactive); in the assay with OVCAR-8, 16.6 µM (inactive); with UO-31 it was 16.4 µM (inactive); with K562, 4.58 µM (inactive). The GI50 with SN12C was 19 µM (inactive).

As to `Fc1ccc2c3c([nH]c2c1)CCN(Cc1ccccc1)C3`, the GI50 with EKVX is 20.9 µM (inactive); in the assay with SF-268, 21 µM (inactive); with HCT-15, 21.1 µM; in the assay with SNB-19 it was 16.6 µM (inactive); in the assay on OVCAR-5 it was 19.9 µM (inactive); with UACC-62 it was 18.2 µM (inactive). In addition, the GI50 was 21.7 µM (inactive) in the assay on SF-539; 17.3 µM (inactive) with MOLT-4; 18.6 µM (inactive) with HCT-116; > 10 µM (inactive) in the assay with TK-10; 22.3 µM (inactive) in the assay with SK-MEL-5; 20.9 µM (inactive) in the assay on NCI-H23. For the same compound, the GI50 in the assay with HCC 2998 was 13.2 µM (inactive); with MDA-MB-435 it was 17.5 µM (inactive); in the assay with OVCAR-8, 19.7 µM (inactive); with UO-31, 12.2 µM (inactive); in the assay on K562, 18.1 µM (inactive); with SN12C it was 19.2 µM (inactive).

For the compound `CC1OC(NCCNCCNC2OC(C)C(O)C(O)C2O)C(O)C(O)C1O` (configuration not stated), the GI50 in the assay with OVCAR-3 was > 100 µM (inactive); in the assay with EKVX, > 100 µM (inactive); in the assay with SF-268, > 100 µM (inactive); in the assay with HCT-15, over 100 µM; in the assay with SNB-19 it was > 100 µM (inactive); in the assay on OVCAR-5 it was > 100 µM (inactive). In addition, the GI50 in the assay with UACC-62, in the assay on BT-549, in the assay on SF-539, with MOLT-4, in the assay with HCT-116 and with TK-10 was > 100 µM (inactive) throughout. The GI50 in the assay with SK-MEL-5, with NCI-H23, in the assay with OVCAR-8, with UO-31, with K562 and with SN12C was > 100 µM (inactive) in each case.

For `CC(=O)CC1(C)OC(N)=C(C#N)C1(C#N)C#N` (configuration not stated), the GI50 in the assay on EKVX was > 100 µM (inactive); in the assay with SF-268, > 100 µM (inactive); in the assay on HCT-15 it was 43.9 µM; with SNB-19, > 100 µM (inactive); in the assay on OVCAR-5, > 100 µM (inactive); in the assay on UACC-62, > 100 µM (inactive). Further, the GI50 in the assay with SF-539 was 86.1 µM (inactive); in the assay with HCT-116, 71.6 µM (inactive); in the assay with TK-10, > 100 µM (inactive); in the assay with SK-MEL-5 it was 42.1 µM (inactive); with NCI-H23, > 100 µM (inactive); in the assay with HCC 2998, > 100 µM (inactive). Also, the GI50 in the assay on MDA-MB-435, with OVCAR-8, in the assay on UO-31 and with SN12C was > 100 µM (inactive) throughout.

As to `CC1(C)OCC(C(O)C2OC(C)(C)OC2C=O)O1` (configuration not stated), the GI50 is > 100 µM (inactive) with OVCAR-3; > 100 µM (inactive) in the assay on EKVX; > 100 µM (inactive) in the assay on SF-268; over 100 µM in the assay on HCT-15; > 100 µM (inactive) with SNB-19; > 100 µM (inactive) in the assay with OVCAR-5. The GI50 in the assay with UACC-62, in the assay on MOLT-4, in the assay with HCT-116, in the assay with TK-10, in the assay with SK-MEL-5 and in the assay with NCI-H23 was > 100 µM (inactive) each time. Also, the GI50 with MDA-MB-435, in the assay with OVCAR-8, in the assay with UO-31, with K562 and in the assay on SN12C was > 100 µM (inactive) each time.

Take `CC1=NN(c2nc(N)nc(NS(=O)(=O)c3cc(C)c(Cl)cc3S)n2)C(C)(C)C1`: the GI50 with OVCAR-3 was > 10 µM (inactive); in the assay on EKVX it was > 10 µM (inactive); in the assay with SF-268, > 10 µM (inactive); in the assay on HCT-15, over 10 µM; with SNB-19, > 10 µM (inactive); with OVCAR-5, > 10 µM (inactive). Further, the GI50 with BT-549, in the assay on SF-539, in the assay with MOLT-4, in the assay with HCT-116, with TK-10 and in the assay on SK-MEL-5 was > 10 µM (inactive) in each case. Moreover, the GI50 in the assay on NCI-H23, with HCC 2998, in the assay with OVCAR-8, in the assay with UO-31, in the assay with K562 and with SN12C was > 10 µM (inactive) each time.

With `COC1O[C@@H]2CCN3C(=O)[C@@H](OC(=O)c4ccc([N+](=O)[O-])cc4)[C@H]1C23` (some centres not stated), the GI50 with OVCAR-3, in the assay with EKVX, with SF-268, with OVCAR-5, with UACC-62 and with SF-539 was > 100 µM (inactive) each time. The GI50 in the assay on MOLT-4, in the assay on HCT-116, in the assay on TK-10, with SK-MEL-5, with NCI-H23 and in the assay on HCC 2998 was > 100 µM (inactive) each time. Further, the GI50 with MDA-MB-435, with OVCAR-8, in the assay with UO-31, in the assay with K562 and in the assay with SN12C was > 100 µM (inactive) each time.
